30 molecules from ChEMBL document CHEMBL1135262, “Noncovalent tripeptidic thrombin inhibitors incorporating amidrazone, amine and amidine functions at P1” (Bioorg Med Chem Lett, 2002) can be followed below.

A short description of data set [1]: Compound was evaluated for its pharmacokinetic parameter maximum plasma concentration (Cmax) after oral administration to rats. It counts as ADME, organism-based. On the set-up: route oral. Conditions: rat; call rule not given here.
The next data set deals with Prothrombin (Homo sapiens, UniProt P00734). Nature of the data set: Binding affinity against human thrombin.
In another data set the target is T1, Serine protease 1 (Bos taurus, UniProt P00760).
T1 sequence (P00760 whole entry): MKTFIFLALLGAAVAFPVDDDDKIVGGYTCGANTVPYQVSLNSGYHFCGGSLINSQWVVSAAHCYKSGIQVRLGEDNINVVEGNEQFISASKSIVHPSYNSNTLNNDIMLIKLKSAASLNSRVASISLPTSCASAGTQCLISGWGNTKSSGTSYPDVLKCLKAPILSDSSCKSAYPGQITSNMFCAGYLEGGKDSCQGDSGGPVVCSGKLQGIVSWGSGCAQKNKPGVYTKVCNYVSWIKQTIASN
Nature of the data set: Binding affinity against bovine trypsin.

Data set [2] can be described thus: Compound was evaluated for its pharmacokinetic parameter maximum area under curve AUCmax. It counts as ADME, organism-based. On the set-up: time AUCmax. Conditions: rat, in vivo.
Data set [3] relates to Rattus norvegicus. Nature of the data set: Compound was evaluated for its ability to inhibit thrombus formation in rat model of venous thrombosis at a dose 0.5 mg/kg. The settings on record: read-out: Inhibition.
In data set [4] the test system is Rattus norvegicus. Nature of the data set: Compound was evaluated for its ability to inhibit thrombus formation in rat model of venous thrombosis at a dose 1 mg/kg. The settings on record: read-out: Inhibition.
Data set [5] has as its target T2, Coagulation factor X (Homo sapiens, UniProt P00742). Nature of the data set: Binding affinity for human Coagulation factor Xa; Inactive.
The target of data set [6] is T2, Coagulation factor X. Nature of the data set: Compound was evaluated for the binding affinity against human Coagulation factor Xa.
The subject of data set [7] is Rattus norvegicus. Nature of the data set: Compound at a dose 5 mg/kg was administered intravenously and evaluated for its ability to inhibit thrombus formation in rat model of venous thrombosis; value ranges from 30-67%. Conditions: route intravenous. It counts as functional.
Data set [8] has as its system Rattus norvegicus. Nature of the data set: Compound (dose 5 mg/kg) was administered intravenously and evaluated for its ability to inhibit thrombus formation in rat model of venous thrombosis; value ranges from 30-67%. It counts as functional. The settings on record: route intravenous.
The test system of data set [9] is Rattus norvegicus. Nature of the data set: Compound at a dose 1 mg/kg was administered intravenously and evaluated for its ability to inhibit thrombus formation in rat model of venous thrombosis. It counts as functional. Conditions: route intravenous.
Data set [10] is filed under the species Rattus norvegicus. Nature of the data set: animal or person. The settings on record: iv, read-out: Inhibition.

Structures are written as SMILES.

T2 sequence (P00742 41-179 limits assumed): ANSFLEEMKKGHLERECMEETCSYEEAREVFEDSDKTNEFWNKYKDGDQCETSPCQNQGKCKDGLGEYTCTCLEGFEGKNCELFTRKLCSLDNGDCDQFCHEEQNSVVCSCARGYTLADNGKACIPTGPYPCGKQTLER
T2 sequence (P00742 235-488 limits assumed): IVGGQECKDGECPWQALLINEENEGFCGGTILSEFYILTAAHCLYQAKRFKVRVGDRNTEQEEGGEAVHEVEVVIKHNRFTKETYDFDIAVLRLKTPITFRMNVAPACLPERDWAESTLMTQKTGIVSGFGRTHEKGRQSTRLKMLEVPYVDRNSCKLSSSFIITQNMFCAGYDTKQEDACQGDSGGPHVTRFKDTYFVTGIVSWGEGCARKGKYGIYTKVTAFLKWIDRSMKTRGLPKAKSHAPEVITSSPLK

In [1], `N=C(N)c1ccc(CNC(=O)[C@@H]2CCCN2C(=O)[C@H](NS(=O)(=O)NC2CCCCC2)C(c2ccccc2)c2ccccc2)cc1.O=C(O)C(F)(F)F` came in with a Cmax of under 300 ng/mL. Moreover, the results for the Ki on Prothrombin and at Serine protease 1 were 0.003 nM and 0.25 nM, respectively.

In turn, `N=C(N)c1ccc(CNC(=O)[C@@H]2CCCN2C(=O)[C@H](NS(=O)(=O)Cc2ccccc2)C(c2ccccc2)c2ccccc2)cc1.O=C(O)C(F)(F)F` returned an AUC in data set [2] of 68 µg·h/mL. The highest level in data set [1] (Cmax) was 900 ng/mL. Besides, the Ki at Prothrombin is 0.005 nM; at Serine protease 1, 0.58 nM.

Take `N=C(N)c1ccc(CNC(=O)[C@@H]2CCCN2C(=O)[C@H](NS(N)(=O)=O)C(c2ccccc2)c2ccccc2)cc1.O=C(O)C(F)(F)F`: in [2], the AUC amounted to 272 µg·h/mL. Also, the Cmax in [1] was determined as 2800 ng/mL. Moreover, the inhibition in vivo at 0.5 mg/kg in the data set on Rattus norvegicus [3] was determined as 80%. Also, in the data set with Rattus norvegicus [4], the inhibition in vivo at 1 mg/kg worked out at 100%. Besides, the Ki at Prothrombin stood at 0.003 nM; at Serine protease 1, 0.3 nM.

Consider `N=C(N)c1ccc(CNC(=O)[C@@H]2CCCN2C(=O)[C@H](NCC(=O)O)C(c2ccccc2)c2ccccc2)cc1.O=C(O)C(F)(F)F`, for which the AUC in data set [2] was 120 µg·h/mL. The Cmax in [1] is 1300 ng/mL. Also, the Ki at Prothrombin was determined as 0.015 nM; at Serine protease 1, 3 nM.

`N=C(N)c1ccc(CNC(=O)[C@@H]2CCCN2C(=O)[C@H](Nc2ccccc2)C(c2ccccc2)c2ccccc2)cc1.O=C(O)C(F)(F)F` yielded an AUC in data set [2] of 53 µg·h/mL. The same molecule registered a Cmax in data set [1] of 300 ng/mL. On Serine protease 1, this molecule displayed a Ki of 1.5 nM.

For the molecule `COP(=O)(N[C@@H](C(=O)N1CCC[C@H]1C(=O)NCc1ccc(C(=N)N)cc1)C(c1ccccc1)c1ccccc1)OC.O=C(O)C(F)(F)F`, in data set [2], the AUC came to 271 µg·h/mL. In data set [1], this molecule had a Cmax of 4000 ng/mL. The results for the Ki at Prothrombin and on Serine protease 1 were 0.044 nM and 2.9 nM, respectively.

In data set [2], `N=C(N)c1ccc(CNC(=O)[C@@H]2CCCN2C(=O)[C@H](NS(=O)(=O)O)C(c2ccccc2)c2ccccc2)cc1.O=C(O)C(F)(F)F` came in with an AUC of 35 µg·h/mL. The molecule further showed a Cmax in [1] of 550 ng/mL. Also, the Ki at Prothrombin was determined as 0.1 nM; at Serine protease 1, 4.4 nM.

Regarding `COC(=O)N[C@@H](C(=O)N1CCC[C@H]1C(=O)NCc1ccc(C(=N)N)cc1)C(c1ccccc1)c1ccccc1.O=C(O)C(F)(F)F`, the AUC in data set [2] worked out at 594 µg·h/mL. This molecule displayed a Cmax in [1] of 3900 ng/mL. In addition, the inhibition constant Ki at Prothrombin came out at 0.036 nM; at Serine protease 1, 0.31 nM.

In the case of `CC(=O)N[C@@H](C(=O)N1CCC[C@H]1C(=O)NCc1ccc(C(=N)N)cc1)C(c1ccccc1)c1ccccc1.O=C(O)C(F)(F)F`, the AUC in data set [2] amounted to 244 µg·h/mL. For the same molecule, the Cmax in data set [1] stood at 3000 ng/mL. Further, the Ki on Prothrombin is 0.16 nM.

`N=C(N)c1ccc(CNC(=O)[C@@H]2CCCN2C(=O)[C@H](N)C(c2ccccc2)c2ccccc2)cc1.O=C(O)C(F)(F)F` showed an AUC in data set [2] of 107 µg·h/mL. This molecule also registered a Cmax in [1] of 1400 ng/mL. Further, on Serine protease 1, the Ki was found to be 2.5 nM.

In the case of `CC(=O)N[C@@H](C(=O)N1CCC[C@H]1C(=O)NCc1ccc(C(=N)NN)s1)C(c1ccccc1)c1ccccc1`, the values for the Ki entry at Coagulation factor X [5] and at Prothrombin were “Not Active” and 105 nM, respectively.

Regarding `N=C(NN)c1ccc(CNC(=O)[C@@H]2CCCN2C(=O)[C@H](NCC(=O)O)C(c2ccccc2)c2ccccc2)s1`, the results for the Ki result at Coagulation factor X [5], at Prothrombin and at Serine protease 1 were “Not Active”, 31 nM and 1100 nM, respectively.

As for `CS(=O)(=O)N[C@H](Cc1ccc(Cl)c(Cl)c1)C(=O)N1CCC[C@H]1C(=O)NCc1ccc(C(=N)N)cc1`, the Ki on Coagulation factor X [6] is 120 nM; on Prothrombin it was 0.05 nM; at Serine protease 1 it was 0.8 nM.

Turning to `CS(=O)(=O)N[C@@H](C(=O)N1CCC[C@H]1C(=O)NCc1ccc(CN)s1)C(c1ccccc1)c1ccccc1`, the values for the Ki result at Coagulation factor X [5] and at Serine protease 1 were “Not Active” and 85 nM, respectively. In the data set with Rattus norvegicus [7], this molecule gave an inhibition in vivo at 5 mg/kg of 30%.

Consider `CS(=O)(=O)N[C@@H](C(=O)N1CCC[C@H]1C(=O)NCc1cc(CN)cs1)C(c1ccccc1)c1ccccc1`, for which the Ki result at Coagulation factor X [5] was “Not Active”; at Prothrombin it was 2.4 nM; on Serine protease 1, 68 nM. The same molecule yielded an inhibition in vivo at 5 mg/kg in the data set on Rattus norvegicus [8] of 30%.

Consider `CS(=O)(=O)N[C@@H](C(=O)N1CCC[C@H]1C(=O)NCc1ccc(C(=N)N)cc1)C(c1ccccc1)c1ccccc1`, for which the AUC in data set [2] amounted to 263 µg·h/mL. In [1], this molecule showed a Cmax of 2700 ng/mL. In addition, the Ki at Coagulation factor X [6] stood at 300 nM; at Prothrombin, 0.003 nM; at Serine protease 1 it was 0.7 nM. For the same molecule, the inhibition in vivo at 1 mg/kg in the data set on Rattus norvegicus [9] was found to be 70%.

For the molecule `CC(C)(C)OC(=O)N[C@@H](C(=O)N1CCC[C@H]1C(=O)NCc1ccc(C(=N)NN)s1)C(c1ccccc1)c1ccccc1`, at Coagulation factor X [5], the inhibition constant Ki result is “Not Active”.

Consider `CS(=O)(=O)N[C@@H](C(=O)N1CCC[C@H]1C(=O)NCc1cc(C(N)=NN)cs1)C(c1ccccc1)c1ccccc1`, for which the Ki is 59000 nM at Coagulation factor X [6], 2.2 nM at Prothrombin and 250 nM on Serine protease 1.

On to `CS(=O)(=O)N[C@@H](C(=O)N1CCC[C@H]1C(=O)NCc1ccc(CN)c(N)c1)C(c1ccccc1)c1ccccc1`, for which the results for the Ki entry on Coagulation factor X [5], on Prothrombin and on Serine protease 1 were “Not Active”, 12 nM and 11 nM, respectively.

With `CS(=O)(=O)N[C@@H](C(=O)N1CCC[C@H]1C(=O)NCc1ccc(C(=N)N)cc1)C1CCCCC1`, the Ki was determined as 5000 nM on Coagulation factor X [6], 0.5 nM on Prothrombin and 9.9 nM on Serine protease 1.

The molecule `COC(=O)N[C@@H](C(=O)N1CCC[C@H]1C(=O)NCC#Cc1c[nH]cn1)C(c1ccccc1)c1ccccc1` gave a Ki at Serine protease 1 of 24000 nM.

As to `Cc1cc(CNC(=O)[C@@H]2CCCN2C(=O)[C@H](NS(C)(=O)=O)C(c2ccccc2)c2ccccc2)ccc1CN`, the Ki entry is “Not Active” at Coagulation factor X [5], 32 nM on Prothrombin and 110 nM at Serine protease 1.

Turning to `CS(=O)(=O)N[C@@H](C(=O)N1CCC[C@H]1C(=O)NCc1csc(C(=N)NN)c1)C(c1ccccc1)c1ccccc1`, the values for the Ki entry at Coagulation factor X [5], on Prothrombin and at Serine protease 1 were “Not Active”, 1.8 nM and 540 nM, respectively.

As to `CS(=O)(=O)N[C@@H](C(=O)N1CCC[C@H]1C(=O)NCc1ccc(CN)nc1)C(c1ccccc1)c1ccccc1`, the Ki result was “Not Active” at Coagulation factor X [5], 6 nM on Prothrombin and 220 nM on Serine protease 1. Further, in the data set listed under Rattus norvegicus [10], the inhibition in vivo at 5 mg/kg was found to be 30%.

On to `CS(=O)(=O)N[C@@H](C(=O)N1CCC[C@H]1C(=O)NCc1ccc(/C(N)=N/N)s1)C(c1ccccc1)c1ccccc1`, for which the results for the Ki on Coagulation factor X [6] and at Serine protease 1 were 193 nM and 12 nM, respectively.

With `CS(=O)(=O)N[C@H](CC1CCCCC1)C(=O)N1CCC[C@H]1C(=O)NCc1ccc(C(=N)N)cc1`, the results for the Ki at Coagulation factor X [6], on Prothrombin and on Serine protease 1 were 200 nM, 0.02 nM and 1.3 nM, respectively.

Turning to `CS(=O)(=O)N[C@@H](C(=O)N1CCC[C@H]1C(=O)NCc1ccc(CN)cc1)C(c1ccccc1)c1ccccc1`, the Ki result is “Not Active” at Coagulation factor X [5], 4 nM on Prothrombin and 9.9 nM at Serine protease 1. The inhibition in vivo at 5 mg/kg in the data set filed under Rattus norvegicus [10] was 30%.

Take `CS(=O)(=O)N[C@@H](C(=O)N1CCC[C@H]1C(=O)NCc1ccc(C(=N)N)s1)C(c1ccccc1)c1ccccc1`: the Ki at Coagulation factor X [6] amounted to 360 nM; on Prothrombin, 0.005 nM; on Serine protease 1 it was 0.6 nM.

For the molecule `CS(=O)(=O)N[C@@H](C(=O)N1CCC[C@H]1C(=O)NCc1csc(CN)c1)C(c1ccccc1)c1ccccc1`, the Ki is 100000 nM on Coagulation factor X [6] and 606 nM at Serine protease 1. Moreover, in the data set listed under Rattus norvegicus [10], the inhibition in vivo at 5 mg/kg was found to be 30%.

`CS(=O)(=O)N[C@@H](C(=O)N1CCC[C@H]1C(=O)NCc1ccc(C(=N)NN)cc1)C(c1ccccc1)c1ccccc1`: the Ki entry is “Not Active” on Coagulation factor X [5], 47 nM on Prothrombin and 150 nM at Serine protease 1.

A word on the Cmax: it is the peak of the concentration-time curve. What is called Ki is a measure of affinity in units of concentration, obtained from inhibition or displacement. A lower Ki goes with tighter binding. What is called AUC is concentration integrated over time. The low end stands for less exposure, the high end for more exposure.
